{"source": "ChEMBL document CHEMBL1125669", "about": "“Synthesis of potential dual-acting radiation sensitizer antineoplastic agents: 2,2-dimethylphosphoraziridines containing 2-nitroimidazoles or other electron-affinic moieties” (1991)", "type_in_all_cases": "functional", "key": {"Mus musculus [1]": {"tested_on": "Mus musculus", "experiment": "In vivo antitumor activity against P-388 leukemia in CDF1 mice at 128 mg or 373 umol by ip administration expressed as median survival time of drug treated mice/median survival time of control mice x100"}, "Mus musculus [2]": {"tested_on": "Mus musculus", "experiment": "In vivo antitumor activity against P-388 leukemia in CDF1 mice at 128 mg or 373 umol by ip administration expressed as average wt. change determined between day 0 and day 6 of experiment"}, "Mus musculus [3]": {"tested_on": "Mus musculus", "experiment": "In vivo antitumor activity against P-388 leukemia in CDF1 mice at 32 mg or 93 umol by ip administration expressed as average wt. change determined between day 0 and day 6 of experiment"}, "Mus musculus [4]": {"tested_on": "Mus musculus", "experiment": "In vivo antitumor activity against P-388 leukemia in CDF1 mice at 8 mg or 23 umol by ip administration expressed as average wt. change determined between day 0 and day 6 of experiment"}, "Mus musculus [5]": {"tested_on": "Mus musculus", "experiment": "In vivo antitumor activity against P-388 leukemia in CDF1 mice at 16 mg or 47 umol by ip administration expressed as median survival time of drug treated mice/median survival time of control mice x100"}, "Mus musculus [6]": {"tested_on": "Mus musculus", "experiment": "In vivo antitumor activity against P-388 leukemia in CDF1 mice at 32 mg or 93 umol by ip administration expressed as median survival time of drug treated mice/median survival time of control mice x100"}, "Mus musculus [7]": {"tested_on": "Mus musculus", "experiment": "In vivo antitumor activity against P-388 leukemia in CDF1 mice at 64 mg or 186 umol by ip administration expressed as median survival time of drug treated mice/median survival time of control mice x100"}, "Mus musculus [8]": {"tested_on": "Mus musculus", "experiment": "In vivo antitumor activity against P-388 leukemia in CDF1 mice at 16 mg or 47 umol by ip administration expressed as average wt. change determined between day 0 and day 6 of experiment"}, "Mus musculus [9]": {"tested_on": "Mus musculus", "experiment": "In vivo antitumor activity against P-388 leukemia in CDF1 mice at 256 mg or 746 umol by ip administration expressed as average wt. change determined between day 0 and day 6 of experiment"}, "Mus musculus [10]": {"tested_on": "Mus musculus", "experiment": "In vivo antitumor activity against P-388 leukemia in CDF1 mice at 64 mg or 186 umol by ip administration expressed as average wt. change determined between day 0 and day 6 of experiment"}, "Mus musculus [11]": {"tested_on": "Mus musculus", "experiment": "In vivo antitumor activity against P-388 leukemia in CDF1 mice at 8 mg or 23 umol by ip administration expressed as median survival time of drug treated mice/median survival time of control mice x100"}, "Mus musculus [12]": {"tested_on": "Mus musculus", "experiment": "In vivo antitumor activity against P-388 leukemia in CDF1 mice at 256 mg or 746 umol by ip administration expressed as median survival time of drug treated mice/median survival time of control mice x100"}}}
{"smiles": "CC1(C)CN1P(=O)(OCCn1ccnc1[N+](=O)[O-])N1CC1(C)C", "note": "(configuration not stated)", "values": [{"measurement": "T/C", "setting": "Mus musculus [1]", "result": 189, "unit": "%"}, {"measurement": "Average weight change", "setting": "Mus musculus [2]", "result": -1.3, "unit": "g"}, {"measurement": "Average weight change", "setting": "Mus musculus [3]", "result": -0.9, "unit": "g"}, {"measurement": "Average weight change", "setting": "Mus musculus [4]", "result": 0.2, "unit": "g"}, {"measurement": "T/C", "setting": "Mus musculus [5]", "result": 122, "unit": "%"}, {"measurement": "T/C", "setting": "Mus musculus [6]", "result": 111, "unit": "%"}, {"measurement": "T/C", "setting": "Mus musculus [7]", "result": 150, "unit": "%"}, {"measurement": "Average weight change", "setting": "Mus musculus [8]", "result": 0.1, "unit": "g"}, {"measurement": "Average weight change", "setting": "Mus musculus [9]", "result": -2.8, "unit": "g"}, {"measurement": "Average weight change", "setting": "Mus musculus [10]", "result": -1.1, "unit": "g"}, {"measurement": "T/C", "setting": "Mus musculus [11]", "result": 106, "unit": "%"}, {"measurement": "T/C", "setting": "Mus musculus [12]", "result": 228, "unit": "%"}]}
